The source of these data is US20190177279A1, “CARBOXYLIC ACID AROMATIC 1,2-CYCLOPROPYLAMIDES” (Bayer Pharma Aktiengesellschaft, priority 2017, published 2019).

The target in assay [1] is T1, native human B1 receptors (Homo sapiens, UniProt P46663).
T1 construct: which express native human B1 receptors after induction with human IL-1; Coriell Institute; host or cells: IMR-90 human foetal lung fibroblasts, induced with human IL-1
T1 sequence (P46663 1-353): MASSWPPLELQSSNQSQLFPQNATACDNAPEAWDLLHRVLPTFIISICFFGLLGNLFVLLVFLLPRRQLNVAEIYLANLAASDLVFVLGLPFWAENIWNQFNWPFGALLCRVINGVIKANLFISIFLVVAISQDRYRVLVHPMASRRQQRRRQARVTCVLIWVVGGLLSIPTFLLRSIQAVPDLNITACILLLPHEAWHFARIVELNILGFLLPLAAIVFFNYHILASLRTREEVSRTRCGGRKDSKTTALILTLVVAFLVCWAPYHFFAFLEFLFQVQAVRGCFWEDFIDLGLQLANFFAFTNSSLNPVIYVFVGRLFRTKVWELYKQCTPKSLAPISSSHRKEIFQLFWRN
Briefly: Calcium flux assay (FLIPR) with IMR-90 human foetal lung fibroblasts after IL-1 induction. Format: cell-based. The conditions noted are these: IMR-90 fibroblasts induced with human IL-1; 0.1% BSA in assay buffer; agonist Lys-(Des-Arg)-Bradykinin at EC90; read-out: hB1 IC50 IMR90. The method, then: Calcium Flux Assay (FLIPR) with Human Fibroblasts for Bradykinin B1 Receptor Antagonist (hB1 IMR-90 IC50)
The Calcium flux Assay was carried out utilising IMR-90 human foetal lung fibroblasts (American Type Culture Collection, Rockville, Md.; and Coriell Institute, Camden, N.J.), which express native human B1 receptors after induction with human IL-1[…].
The fibroblasts were cultured in complete growth media comprised of Dulbecco's modified Eagle's medium (DMEM; Sigma) containing 10% foetal bovine serum, 4 mM L-glutamine, and 1% nonessential amino acids. The cells were maintained in a humidified atmosphere with 5% CO2 at 37° C. and were sub-cultured at a ratio of 1:3, every other day.
For the assay, IMR-90 fibroblasts were harvested using TrypLE Express (GIBCO/Invitrogen) and seeded into 384-well plates (Corning Cellbinding Surface, Cat. 3683) at a density of 15000 cells/well. The following day, cells were treated with 0.35 ng/mL human IL-1[…] in 10% FBS/MEM for 3 h to up-regulate B1 receptors. Induced cells were loaded with fluorescent calcium indicator by incubation with 2.5 μM Fluo-4/AM (Invitrogen) at 37° C., 5% CO2 for 2 h in the presence of 2.5 mM probenecid in 1% FBS/MEM. Extracellular dye was removed by washing with assay buffer (2.5 mM probenecid and 0.1% BSA in 20 mM HEPES/HBSS without bicarbonate or phenol red, pH 7.5). Example compounds were assayed at 8 concentrations in triplicate. After addition of example compounds to the cell plate and incubation for 30 min at 28° C., the addition of B1 agonist Lys-(Des-Arg)-Bradykinin (Bachem, Brackley) at a final concentration of EC90 was carried out on the FLIPR instrument while continuously monitoring Ca^2+-dependent fluorescence at 538 nm. A peptide antagonist Lys-(Des-Arg-Leu)-Bradykinin (Bachem, Brackley) at 20 μM was used to determine the full inhibition as control. IC50 values were determined by the same way described for the FLIPR assay with recombinant cells.
Background: A change in cytosolic calcium serves as a functional read-out for many receptors and channels.

Assay [2] concerns IL-8 secretion. The assay can be described thus: Bradykinin B1 receptor agonist-induced secretion of IL-8 in human IMR-90 cells. Format: cell-based. The settings on record: 0.1 μM Lys-[Des-Arg9]Bradykinin and 0.1 μM Sar-[D-Phe8]-des-Arg9-Bradykinin, 5 hours. The source says:
Inhibitory Activity on Bradykinin B1 Receptor Agonist-Induced Secretion of IL-6 and IL-8 in Human IMR-90 Cells
The effect of the compound examples on secretion of the cytokine IL-6 and IL-8 was investigated in the human foetal lung fibroblast IMR-90 cell line. Here the induction of the cytokine secretion was induced by the Bradykinin B1 receptor agonists Lys-[Des-Arg9]Bradykinin (CAS 71800-36-7, Tocris Bioscience) and Sar-[D-Phe8]-des-Arg9-Bradykinin (CAS 126959-88-4, Tocris Bioscience) leading to the activation of the Bradykinin B1-driven signalling pathway. […]
IMR-90 cells were cultured in Eagle's Minimum Essential Medium (EMEM) containing 2 mM L-glutamine, 1 g/L glucose, 1.5 g/L NaHCO3, 1 mM sodium pyruvate and non-essential amino acids (ATCC, 30-2003™) supplemented with 10% FBS (Biochrom, 50615) and 50 U/mL Penicillin, 50 μg/mL Streptomycin (PAA, P11-010). […] The compound examples were serially diluted in 100% DMSO and evaluated at 8 different concentrations within the range of 3 nM and 10 μM and a final DMSO concentration of 0.4%. […] The amount of IL-6 and IL-8 in the supernatant was determined using the Human ProInflammatory Panel II (4-Plex) (MSD, K15025B) according to manufacturer's instruction. […] The cell viability was measured using the CellTiter-Glo Luminescent Assay (Promega, G7571) following the manufacturers protocol. […]

As a reminder, the IC50 is the midpoint of a concentration-inhibition curve.

`O=C(O)c1cc(NC(=O)C2CC2c2ccc(Cl)cc2)cc(F)c1-c1cnn(C2CCC2)c1` (racemic) [Example 2, 5-({[2-(4-chlorophenyl)cyclopropyl]carbonyl}amino)-2-(1-cyclobutyl-1H-pyrazol-4-yl)-3-fluorobenzoic acid]: the IC50 in assay [1] was found to be 66 nM; in assay [2] it was 185 nM.
